According to patent US20240226233A1, “COMPOSITION COMPRISING ZAG-DERIVED PEPTIDE FOR IMPROVING SCARS AND KELOIDS” (L&C BIO CO., LTD., priority 2021, published 2024):

Assays:
[1] = system: collagen I, III, TGF-β, pSMAD2/3; experiment: RNA (PCR) and protein (Western blotting) expression in scratched, TGF-β-treated HDFs; format: cell-based, human; conditions: HDF, TGF-β + peptide vs TGF-β-treated group; for mRNA expression of collagen I, III, and TGF-β: PCR; for protein expression of collagen I, III, TGF-β, and pSMAD2/3: Western blotting
Method: (§1) HDFs and KFs were seeded in a 6-well plate. After 24 hours, the center of each well was scratched to create a wound. Thereafter, the HDF test group was treated with 10 ng/mL of TGF-β, which is overexpressed during scar formation, to create a scar environment, and then treated with the selected Z16 peptide. The migration of cells in the affected area was confirmed 24 hours later.
(§2) Cells were treated with Z16 under the same conditions as in Example 2-1, and the expression of RNA and proteins involved in the formation of hypertrophic scars or keloids was analyzed. The expression was confirmed through PCR and Western blotting.
(§3) HDFs and KFs were seeded in a 6-well plate. After 24 hours, the center of each well was scratched to create a wound generation model. Thereafter, the HDF test group was treated with 10 ng/mL of TGF-β, which is overexpressed during scar formation, to create a scarring environment, and then treated with Z15mer_1 to Z15mer_4 additionally synthesized in Preparation Example 2. The migration of cells in the affected area was confirmed 24 hours later.
(§4) Cells were treated with Z16 under the same conditions as in Example 3-1, and the expression of RNA and proteins involved in the formation of hypertrophic scars or keloids was analyzed. The expression was confirmed through PCR and Western blotting.

[2] = system: keloid fibroblasts (KFs); experiment: CCK-8 assay, cell proliferation of KFs; format: cell-based; conditions: KF, 10 μg/mL, compared to untreated negative control / other candidates
Method: (§5) A CCK-8 assay was performed to select amino acid sequences corresponding to the core active region of ZAG, which has an inhibitory effect on the formation of scars, among the 18 peptide candidates. Human dermal fibroblasts (HDFs) and keloid fibroblasts (KFs) were treated with the ZAG protein-derived peptide candidates (Z1 to Z18) and the ZAG protein (ZAG) at a concentration of 10 μg/mL, and cell proliferation was then confirmed using a CCK-8 assay. A group treated with the ZAG protein alone was used as a positive control, and an untreated group was used as a negative control.
(§6) Specifically, HDFs and KFs were treated with the ZAG protein (ZAG), Z16, and the ZAG protein-derived peptide candidates (Z15mer_1 to Z15mer_4) additionally synthesized in Preparation Example 2 at a concentration of 10 μg/mL, and cell proliferation was then confirmed through a CCK-8 assay.

[3] = system: human dermal fibroblasts (HDFs); experiment: CCK-8 assay, cell proliferation of HDFs; format: cell-based; conditions: HDF, 10 μg/mL, compared to untreated negative control / other candidates
Method: as §5, §6

[4] = system: collagen I, III, TGF-β, pSMAD2/3; experiment: RNA (PCR) and protein (Western blotting) expression in scratched KFs; format: cell-based; conditions: KF, vs untreated negative control; for mRNA expression of collagen I, III, and TGF-β: PCR; for protein expression of collagen I, III, TGF-β, and pSMAD2/3: Western blotting
Method: as §1, §2, §3, §4

[5] = system: hypertrophic scars or keloids; experiment: Overall inhibitory effect on formation of hypertrophic scars or keloids (HDF/KF tests); format: cell-based; conditions: compared with ZAG16, scratch assay HDF and KF
Method: as §5, §3

[6] = system: HDFs; experiment: Scratch assay, cell migration of HDFs in TGF-β scar environment; format: cell-based, human; conditions: HDF scratched, 10 ng/mL TGF-β, 24 hours, compared to TGF-β-treated group
Method: as §1, §3

[7] = system: KFs; experiment: Scratch assay, cell migration of KFs; format: cell-based; conditions: KF scratched, general medium, 24 hours
Method: as §1, §3

For “APGEKKKLKCLAYDF (ZAG protein-derived peptide) [Peptide Z15mer_1]”, the “mRNA expression of collagen I, III, and TGF-β” value (“mRNA expression of collagen I” below) [1] was “decreased”, the “protein expression of collagen I, III, TGF-β, and pSMAD2/3” value (“protein expression of collagen I, III” below) [1] was “decreased” and the “cell proliferation (CCK-8)” value [2] was “lowest proliferation”. For the same molecule, the “cell proliferation (CCK-8)” value [3] was “lowest proliferation”, the “mRNA expression of collagen I” value [4] was “decreased” and the “protein expression of collagen I, III” value [4] was “decreased”. For the same molecule, the “inhibition of the formation of hypertrophic scars and keloids” value [5] was “more effectively than ZAG16”, the “migration of cells in the affected area” value [6] was “greatest inhibition of cell migration” and the “migration of cells in the affected area” value [7] was “greatest inhibition of cell migration”.

“APGEKKKLKCLAYDFYPGKIDVHWTRAGEV (ZAG protein-derived peptide) [Peptide Z16]” was tested, and the “mRNA expression of collagen I” value [1] was “decreased”, the “protein expression of collagen I, III” value [1] was “decreased” and the “cell proliferation (CCK-8)” value [2] was “lowest cell proliferation”. For the same molecule, the “cell proliferation (CCK-8)” value [3] was “lowest cell proliferation”, the “mRNA expression of collagen I” value [4] was “decreased” and the “protein expression of collagen I, III” value [4] was “decreased”. The “migration of cells in the affected area” value [6] was “inhibited” and the “migration of cells in the affected area” value [7] was “inhibited”.

B1: zinc-alpha-2-glycoprotein (ZAG) protein (protein, listed as Homo sapiens)
chain: MVRMVPVLLSLLLLLGPAVPQENQDGRYSLTYIYTGLSKHVEDVPAFQALGSLNDLQFFRYNSKDRKSQPMGLWRQVEGMEDWKQDSQLQKAREDIFMETLKDIVEYYNDSNGSHVLQGRFGCEIENNRSSGAFWKYYYDGKDYIEFNKEIPAWVPFDPAAQITKQKWEAEPVYVQRAKAYLEEECPATLRKYLKYSKNILDRQDPPSVVVTSHQAPGEKKKLKCLAYDFYPGKIDVHWTRAGEVQEPELRGDVLHNGNGTYQSWVVVAVPPQDTAPYSCHVQHSSLAQPLVVPWEAS
B1 was tested, and the “cell proliferation (CCK-8)” value [2] was “decreased cell proliferation” and the “cell proliferation (CCK-8)” value [3] was “decreased cell proliferation”.
